Assay results published in patent US20240245670A1, “DOSING REGIMEN AND PHARMACEUTICAL COMBINATION COMPRISING 3-(1-OXOISOINDOLIN-2-YL)PIPERIDINE-2,6-DIONE DERIVATIVES” (Novartis AG, priority 2018, published 2024).
Entries after “also recorded” stand apart in the source; their conditions may differ.

Experiments:
[1] = In vitro metabolism in liver microsomes and hepatocytes across species; type: in vitro ADME
[2] = tested on: IKZF2 expression in FOXP3+ T cells from PBMCs; test: PD after repeated daily oral dosing in immunized cynomolgus monkeys: IKZF2 by flow cytometry (FIG. 9A); type: in vivo, cynomolgus monkey
Protocol: FIG. 9A. is a graph showing the degradation of IKZF2 measured in FOXP3+ T cells upon repeated daily dosing in immunized cynomolgus monkeys treated daily with Compound I-57. Compound treatment was initiated at day 5.
(§1) The PK/PD relationship of I-57 was further examined in cynomolgus monkeys after repeated daily oral doses of 0.1 and 3 mg/kg. In this study, a cohort of animals were initially immunized with an antigen-adjuvant mixture (KLH/Squalene). The experiment was designed to assess the effect of I-57 exposure, and the resulting IKZF2 degradation, on immune response during immunization to test the hypothesis that IKZF2 degradation would result in increased proliferation of stimulated T-cells. In the experiment, daily I-57 oral treatment was initiated 5 days after immunization. An immunization booster dose was administered on day 15. I-57 plasma concentration and IKZF2 expression (as determined by flow cytometry) in FOXP3+ T cells from PBMCs were determined (FIG. 9A and FIG. 9B).
Consistent with previous findings, IKZF2 degradation was detected 24 h after the first dose (at day 6) (FIG. 9A and FIG. 9B). The levels of IKZF2 decreased further upon repeat dosing and reached a steady-state level approximately 72 h after initiation of treatment. This level of degradation was maintained throughout the remainder of the treatment (24 days).

FIZ1 = target: T1, FIZ1 (Homo sapiens, UniProt Q96SL8+Q96SW2); test: Whole cell proteomic analysis in 293T cells and subsequent analyses; type: cell-based
T1 construct: endogenous in cells; host or cells: 293T
Protocol: (§2) Other potential degradation targets of I-57 were evaluated in 293T cells using whole cell proteomic analysis. […] Subsequent analyses have confirmed that FIZ1 is degraded by about 50% at a 10 μM concentration of I-57 ([I-57 Investigator's Brochure]). […] FIZ1 is expressed in the neural retina where it transcriptionally represses the differentiation of photoreceptors. FIZ1 is also expressed in non-ocular tissues with unknown function.

rat IKZF2 = target: T2, rat IKZF2 (Rattus norvegicus, UniProt A0A0G2JVA9); test: IKZF2 degradation, species relevance (rat)
T2 construct: assessed in primary PBMCs obtained from rabbit, dog, pig, cynomolgus monkey, and human, and in primary splenocytes of mouse and rat; endogenous in cells; host or cells: primary rat splenocytes
Protocol: The starting dose of I-57 selected for this study is supported by 4-week GLP toxicology studies performed in cynomolgus monkeys. […] GLP toxicity studies identified 30 mg/kg as the HNSTD in monkey and supported a starting dose up to 100 mg QD in human (BSA scaled HED and using a safety factor of 6). The selected dose of 20 mg is anticipated to result in a significant but sub-maximal IKZF2 degradation in human PBMCs and TILs (50-90%), based on PK/PD modeling of I-57 exposure and IKZF2 degradation in cynomolgus PBMCs. More IKZF2 degradation may be required to change downstream biology. Therefore, 20 mg is considered safe. Escalation from this starting dose will facilitate the determination of the minimal required dose which provides optimal IKZF2 degradation to impact downstream biological activity.

IKZF2 [3] = target: T3, IKZF2 (Homo sapiens, UniProt Q96SW2+Q9UKS7); test: Degradation of prolabel-tagged target proteins in HEK293T cells (FIG. 1); type: cell-based; set-up: prolabel; expressed in transfected cells; host or cells: HEK293T; conditions: HEK293T cells overexpressing prolabel-tagged target proteins; various concentrations
Excerpt: FIG. 1. is a graph showing the selectivity of Compound I-57 for the degradation of IKZF2 over the other IKAROS family members, IKZF1, IKZF4, and GSPT1 at various concentrations in HEK293T cells overexpressing prolabel-tagged target proteins.
(§3) Although the specific transcriptional targets of IKZF2 remain to be defined, IKZF2 binds to and represses transcription from the IL-2 promoter region (Baine 2013). […] Finally, an in vitro assay recapitulating hallmarks of T cell dysfunction/exhaustion, by sequential TCR stimulation of isolated primary human T cells, was used to test the hypothesis that […] would rescue the exhausted phenotype and enhance Teff cell activity. […] In addition to IKZF1, other known cereblon substrates including translation termination factor G1 to S phase transition 1 (GSPT1) are not degraded by I-57 (FIG. 1).

[4] = In vivo non-clinical PK profile, i.v. and p.o., all species tested (mouse, rat, dog, cynomolgus monkey)
Protocol: The in vivo non-clinical PK profile of I-57 was investigated in mouse, rat, dog and cynomolgus monkey using I-57 free base. […] After p.o. administration, the absorption of I-57 was rapid with peak blood concentration (Tmax) occurring between 1 and 4 hours. […] In high dose PK and toxicology studies with I-57 the exposures in mouse, rat and monkey increased with dose.

TMEM97 = target: T4, TMEM97 (Homo sapiens, UniProt Q5BJF2); test: Whole cell proteomic analysis in 293T cells; type: cell-based; conditions: nearly 8000 proteins identified
T4 construct: endogenous in cells; host or cells: 293T
Protocol: as §2

anti-KLH IG = test: Serum anti-KLH IG levels in immunized cynomolgus monkeys; type: in vivo, cynomolgus monkey; conditions: daily oral 0.1 and 3 mg/kg
Protocol: as §1
In order to measure the impact of I-57 treatment on the immune response following immunization, serum anti-KLH IG levels were measured longitudinally, and levels of T cell activation were measured in PBMCs by flow cytometry. […] In contrast, the proportion of proliferative peripheral T cells (denoted by Ki67 staining) was increased in the highest dose group (3 mg/kg) in the recall response phase, compared to immunization alone.

primary human Tregs = test: Suppressive potency of Treg cells expanded in vitro in the presence of compound (FIG. 2C); type: cell-based
Excerpt: FIG. 2C is a bar graph showing the suppressive potency of Treg cells expanded in the presence of Compound I-57.
as §3

IKZF2 [5] = target: T3, IKZF2; test: IKZF2 protein in total tumor-infiltrating lymphocytes by immunohistochemistry, hPBMC AdT model (FIG. 8); type: in vivo; set-up: endogenous in cells; host or cells: primary human PBMCs / primary Treg cells; conditions: 24 h post the 14th daily dose
Protocol: FIG. 8A is a bar graph showing the change in the IKZF2 protein levels in total tumor-infiltrating lymphocytes by immunohistochemistry (IHC) at 24 h post the 14th daily dose of 1, 3 or 30 mg/kg Compound I-57.
IKZF2 protein levels in total tumor-infiltrating lymphocytes were also assessed by immunohistochemistry (IHC) at 24 h post the 14th dose of 1, 3 or 30 mg/kg I-57. […] Overall, IKZF2 degradation assessed by IHC was generally consistent with our findings in Tregs by flow cytometry, though dose dependency was less apparent. Together, the data support the finding of profound I-57-mediated IKZF2 degradation in tumor-infiltrating lymphocytes (FIG. 8A and FIG. 8B).

T3 sequence (Q9UKS7 whole entry): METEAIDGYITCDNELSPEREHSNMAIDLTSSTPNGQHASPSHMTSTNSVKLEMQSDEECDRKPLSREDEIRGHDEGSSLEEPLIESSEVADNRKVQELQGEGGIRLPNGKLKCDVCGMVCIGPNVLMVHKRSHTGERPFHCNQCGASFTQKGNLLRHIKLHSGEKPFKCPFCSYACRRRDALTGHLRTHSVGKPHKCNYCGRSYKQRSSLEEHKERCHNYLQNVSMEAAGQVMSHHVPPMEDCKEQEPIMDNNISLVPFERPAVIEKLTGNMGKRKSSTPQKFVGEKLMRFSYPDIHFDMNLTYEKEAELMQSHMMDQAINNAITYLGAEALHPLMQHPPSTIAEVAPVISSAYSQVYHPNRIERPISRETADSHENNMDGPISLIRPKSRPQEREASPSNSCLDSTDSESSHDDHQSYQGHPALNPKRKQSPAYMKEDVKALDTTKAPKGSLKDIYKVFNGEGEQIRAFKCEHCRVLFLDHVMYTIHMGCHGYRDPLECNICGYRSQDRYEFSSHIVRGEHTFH
T3 sequence (Q96SW2 whole entry): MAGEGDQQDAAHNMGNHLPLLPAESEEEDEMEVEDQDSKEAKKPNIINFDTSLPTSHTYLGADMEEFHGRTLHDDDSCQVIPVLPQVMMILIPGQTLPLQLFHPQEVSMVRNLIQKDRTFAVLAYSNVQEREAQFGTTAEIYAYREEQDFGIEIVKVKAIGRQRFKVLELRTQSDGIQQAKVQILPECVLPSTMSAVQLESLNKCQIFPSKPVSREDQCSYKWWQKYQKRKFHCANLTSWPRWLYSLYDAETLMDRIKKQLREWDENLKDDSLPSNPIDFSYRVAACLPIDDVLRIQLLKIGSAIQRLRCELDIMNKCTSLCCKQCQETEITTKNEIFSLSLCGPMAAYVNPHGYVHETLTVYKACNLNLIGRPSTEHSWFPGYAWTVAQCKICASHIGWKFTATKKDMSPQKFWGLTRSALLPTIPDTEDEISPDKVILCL
T3 sequence (Q16531 whole entry partner): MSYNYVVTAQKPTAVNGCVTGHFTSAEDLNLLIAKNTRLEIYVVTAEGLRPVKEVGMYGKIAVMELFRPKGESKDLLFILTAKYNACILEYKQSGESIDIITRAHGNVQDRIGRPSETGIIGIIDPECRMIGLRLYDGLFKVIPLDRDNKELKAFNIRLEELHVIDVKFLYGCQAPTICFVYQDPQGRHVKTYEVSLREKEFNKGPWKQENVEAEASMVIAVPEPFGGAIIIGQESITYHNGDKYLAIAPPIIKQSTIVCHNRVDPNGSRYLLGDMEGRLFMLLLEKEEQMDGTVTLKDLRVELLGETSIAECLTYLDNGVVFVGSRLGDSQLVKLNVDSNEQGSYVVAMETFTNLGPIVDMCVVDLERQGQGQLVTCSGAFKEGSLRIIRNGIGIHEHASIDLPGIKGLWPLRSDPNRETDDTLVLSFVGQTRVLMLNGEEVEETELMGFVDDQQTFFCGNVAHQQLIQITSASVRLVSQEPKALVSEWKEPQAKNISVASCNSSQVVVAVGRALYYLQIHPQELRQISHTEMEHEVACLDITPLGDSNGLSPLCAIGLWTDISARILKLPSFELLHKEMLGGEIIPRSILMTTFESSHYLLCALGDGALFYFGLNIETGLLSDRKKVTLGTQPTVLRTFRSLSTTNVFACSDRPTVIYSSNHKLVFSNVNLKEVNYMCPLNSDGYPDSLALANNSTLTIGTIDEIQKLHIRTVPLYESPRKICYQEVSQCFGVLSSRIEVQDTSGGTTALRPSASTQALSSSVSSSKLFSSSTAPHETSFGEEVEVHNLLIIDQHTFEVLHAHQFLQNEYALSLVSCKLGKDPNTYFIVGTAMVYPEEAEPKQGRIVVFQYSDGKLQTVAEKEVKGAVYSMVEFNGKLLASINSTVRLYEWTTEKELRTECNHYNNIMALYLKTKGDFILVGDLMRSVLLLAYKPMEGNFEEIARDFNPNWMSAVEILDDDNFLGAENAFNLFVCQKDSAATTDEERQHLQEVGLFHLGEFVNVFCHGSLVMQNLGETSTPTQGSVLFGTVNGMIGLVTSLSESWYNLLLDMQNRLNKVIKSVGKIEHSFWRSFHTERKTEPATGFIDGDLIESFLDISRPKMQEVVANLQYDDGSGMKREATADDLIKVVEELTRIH
T1 sequence (Q96SL8 whole entry): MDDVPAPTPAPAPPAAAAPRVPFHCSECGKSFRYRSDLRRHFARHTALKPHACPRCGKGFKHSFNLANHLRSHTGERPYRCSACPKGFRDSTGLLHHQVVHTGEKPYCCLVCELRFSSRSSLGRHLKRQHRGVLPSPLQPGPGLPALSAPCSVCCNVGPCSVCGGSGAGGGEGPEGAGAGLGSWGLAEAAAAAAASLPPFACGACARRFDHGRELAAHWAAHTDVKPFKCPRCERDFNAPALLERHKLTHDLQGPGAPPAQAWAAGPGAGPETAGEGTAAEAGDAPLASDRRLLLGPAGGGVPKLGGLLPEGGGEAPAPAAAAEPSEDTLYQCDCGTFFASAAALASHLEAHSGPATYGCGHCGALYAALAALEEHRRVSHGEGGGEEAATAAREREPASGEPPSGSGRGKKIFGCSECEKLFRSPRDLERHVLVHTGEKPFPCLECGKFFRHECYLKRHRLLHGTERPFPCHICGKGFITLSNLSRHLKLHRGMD
T1 sequence (Q96SW2 whole entry): as the sequence (Q96SW2 whole entry) above
T1 sequence (Q16531 whole entry partner): as the sequence (Q16531 whole entry partner) above
T4 sequence (Q5BJF2 whole entry): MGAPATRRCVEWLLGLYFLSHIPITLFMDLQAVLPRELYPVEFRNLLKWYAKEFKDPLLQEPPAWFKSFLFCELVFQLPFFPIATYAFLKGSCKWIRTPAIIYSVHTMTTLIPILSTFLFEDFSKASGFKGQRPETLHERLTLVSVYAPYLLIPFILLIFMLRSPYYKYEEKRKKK
T2 sequence (A0A0G2JVA9 1-467): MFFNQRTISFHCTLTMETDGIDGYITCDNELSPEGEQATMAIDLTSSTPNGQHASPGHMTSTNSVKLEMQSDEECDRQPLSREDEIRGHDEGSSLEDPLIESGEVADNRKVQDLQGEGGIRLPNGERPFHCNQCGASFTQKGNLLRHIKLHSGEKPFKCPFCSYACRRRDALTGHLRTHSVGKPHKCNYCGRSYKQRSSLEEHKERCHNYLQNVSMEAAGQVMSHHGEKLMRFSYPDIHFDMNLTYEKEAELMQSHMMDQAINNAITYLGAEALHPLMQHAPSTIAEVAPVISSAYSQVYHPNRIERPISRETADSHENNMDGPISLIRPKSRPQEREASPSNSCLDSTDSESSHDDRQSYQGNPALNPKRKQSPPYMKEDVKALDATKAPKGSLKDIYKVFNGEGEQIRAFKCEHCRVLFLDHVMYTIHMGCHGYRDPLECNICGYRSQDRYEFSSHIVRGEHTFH
T2 sequence (Q56AP7 whole entry partner): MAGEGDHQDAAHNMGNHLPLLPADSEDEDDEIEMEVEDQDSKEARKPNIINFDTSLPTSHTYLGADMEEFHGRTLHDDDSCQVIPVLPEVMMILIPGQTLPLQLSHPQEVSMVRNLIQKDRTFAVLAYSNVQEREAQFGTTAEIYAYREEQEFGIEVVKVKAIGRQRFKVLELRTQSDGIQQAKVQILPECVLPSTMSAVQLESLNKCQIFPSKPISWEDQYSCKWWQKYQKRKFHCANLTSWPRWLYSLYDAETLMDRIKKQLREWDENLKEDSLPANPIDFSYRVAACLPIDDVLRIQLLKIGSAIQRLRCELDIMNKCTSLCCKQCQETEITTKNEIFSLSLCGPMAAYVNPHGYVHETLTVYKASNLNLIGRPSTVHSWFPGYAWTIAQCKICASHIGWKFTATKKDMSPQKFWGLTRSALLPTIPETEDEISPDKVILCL

In the case of `O=C1CCC(N2Cc3cc(C4CCN(Cc5ccccc5)CC4)ccc3C2=O)C(=O)N1` (centres unmarked) [Compound I-57, 3-(5-(1-benzylpiperidin-4-yl)-1-oxoisoindolin-2-yl)piperidine-2,6-dione], the metabolic stability [1] is reported as “very stable”, the “time to steady-state level of IKZF2” value ([2]; after initiation of treatment, repeat daily dosing) is reported as “approximately 72 h” and the “time at which IKZF2 degradation was detected” value ([2]; after the first dose (at day 6), daily oral 0.1 and 3 mg/kg) is reported as 24 h. The FIZ1 degradation (FIZ1; 10 μM concentration of I-57) was “about 50%”, the “FIZ1 degradation (proteomics)” value (FIZ1; 293T cells, nearly 8000 proteins identified) was “degraded” and the “degradation of rat IKZF2” value (rat IKZF2) was “not rat”. For the same molecule, the “degradation of IKZF2” value (IKZF2 [3]) was “potent and specific degrader; also recorded: potent and specific degradation”, the “terminal half-life (T1/2)” value ([4]; i.v. administration, all species tested) was “moderate” and the absorption ([4]; p.o. administration) was “rapid”. For the same molecule, the “TMEM97 degradation (proteomics)” value (TMEM97) was “degraded”, the “anti-IgG titers elicited by the immunization” value (anti-KLH IG) was “not further enhanced” and the “proportion of IKZF2-expressing cells” value (primary human Tregs) was “remained unchanged”. For the same molecule, the “IKZF2 degradation in total tumor-infiltrating lymphocytes (IHC)” value (IKZF2 [5]; 30 mg/kg) was “approximately 85%” and the “IKZF2 levels in total tumor-infiltrating lymphocytes (IHC)” value (IKZF2 [5]; 1, 3 and 30 mg/kg) was “Robust reduction in IKZF2 levels”.
